Measurements as given in patent US9199975B2, “Biaryl imidazole derivatives for regulating CYP17” (Asana Biosciences, LLC, priority 2011, dated 2015).
pIC50: −log10 of the molar value.

Molecular target: T1, rat CYP17 (Rattus norvegicus, UniProt P11715)
T1 construct: Rat testis tissue was collected and disrupted with 30 strokes of a glass homogenizer; from tissue; host or cells: rat testis (microsomal fraction)
T1 sequence (P11715 1-507): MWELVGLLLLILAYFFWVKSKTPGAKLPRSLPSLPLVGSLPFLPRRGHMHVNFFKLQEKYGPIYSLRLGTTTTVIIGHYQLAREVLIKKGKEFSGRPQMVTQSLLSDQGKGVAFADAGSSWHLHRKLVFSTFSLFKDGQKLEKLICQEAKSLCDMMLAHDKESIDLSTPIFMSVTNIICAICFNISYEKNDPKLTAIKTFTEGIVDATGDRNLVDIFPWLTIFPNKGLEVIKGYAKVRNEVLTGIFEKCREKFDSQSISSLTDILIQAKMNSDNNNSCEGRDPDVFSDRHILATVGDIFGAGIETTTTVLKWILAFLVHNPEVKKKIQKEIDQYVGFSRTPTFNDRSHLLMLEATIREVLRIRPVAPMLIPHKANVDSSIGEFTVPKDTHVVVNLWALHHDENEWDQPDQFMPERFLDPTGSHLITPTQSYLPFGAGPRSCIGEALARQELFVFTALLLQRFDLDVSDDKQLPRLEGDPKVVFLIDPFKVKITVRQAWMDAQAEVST
Assay: CYP17 inhibition assay in rat testicular microsomes
Type: biochemical
Conditions: 3H3-17α-hydroxypregnenolone substrate, 60 minutes at 37° C.
Procedure: CYP17 Inhibition Assay in Rat Testicular Microsomes (Rat CYP17) or Yeast Microsome Overexpressing Human CYP17
A. Materials • 1. NADPH (Sigma): A working stock was prepared by adding 25 μL of 6.5 mM NADPH in each tube. The final concentration of NADPH used in the assay was 325 μM. • 2. Potassium Phosphate Buffer: One molar (1M) solutions of K2HPO4 and KH2PO4 were prepared. Eight mL of the 1 M KH2PO4 and 1.98 mL of the 1 M K2HPO4 were combined and the pH was adjusted to 7.4. • 3. ^3H3-17α-hydroxypregnenolone (American Radiolabeled Chemicals, Inc., stock 1 μCi/μL): A 1:1 dilution of ^3H3-17α-hydroxypregnenolone in ethanol was prepared by combining 100 μL ^3H3-17α-hydroxypregnenolone+100 μL ethanol for one complete 96 well plate. For the reaction, 2 μL of the diluted ^3H3-17α-hydroxypregnenolone was added in each tube, i.e., 1 μCi/reaction. • 4. Microsome Isolation Buffer: The microsome isolation buffer was prepared by combining 250 mM Sucrose, 5 mM EDTA, 10 mM Tris HCl, 4 mM DTT, and adjusting to pH 7.4. • 5. TEG Buffer: The TEG buffer was prepared by combining 50 mM Tris HCl, 1 mM EDTA, and 20% Glycerol. • 6. Rat Testicular Microsomes: Rat testis tissue was collected and disrupted with 30 strokes of a glass homogenizer on ice with 250 μL of microsome isolation buffer, followed by centrifugation at 10,000 g for 10 minutes at 4° C. The supernatant was collected and centrifuged at 100,000 g for 45 minutes at 4° C. The pellet was dissolved in TEG Buffer and the protein was quantified. The homogenized microsome samples were then frozen at −80° C. • 7. Yeast Microsomes which overexpress the human CYP17 enzyme were obtained from Premas Biotech, India.
Potassium phosphate buffer (470 μL) was prepared as described above and was added to each well of a deep well plate. The test compound was diluted using a TECAN liquid handler and 5 μL of diluted compound was transferred to each well (96 deep well/1 mL). A solution (25 μL) of 6.5 mM NADPH was added (final concentration of 325 µM in the assay). ^3H3-17α-hydroxypregnenolone (2 μL of the working stock) was added to each tube. The plates were then pre-incubated for 15 minutes at 37° C. Following the pre-incubation, either 5 μL rat testicular microsomes (150-160 μg) or 5 μL of yeast microsomes expressing human CYP17 (1.7 pmol), was added. Incubation was at 37° C. for 60 minutes in the presence of oxygen. The plates were then placed in ice and chloroform (500 μL) was added, mixed well and incubated at 4° C. for 20 minutes. The plates were then centrifuged at 1000 rpm for 15 minutes at 4° C.
A portion (300 μL) of the aqueous solution was collected and mixed with a 5% aqueous suspension of activated charcoal (300 μL). The plates were then incubated at 4° C. for 30 minutes, after which the plates were centrifuged at 1000 rpm for 15 minutes at 4° C. From this, 125 μL of the aqueous solution was collected and plated into a 96 well plate. Microscint™ 40 [125 μL, Perkin-Elmer; containing a mixture of a polymer based on alkylphenolethoxylate (20-40%), diethanolamine-phosphoric acid ester ammonium salt (10-20%), sodium dioctyl sulphosuccinate (2.5-10%), triethyl phosphate (2.5-10%), 3,6-dimethyl-4-octyne-3,6-diol (≦2.5%), a polymer based on nonylphenolethoxylate (≦2.5%), diisopropyl naphthalene isomers (40-60%), 2,5-diphenyloxazole (≦2.5%), and 9,10-dimethylanthracene] was added and mixed well. After 30 minutes of incubation, the samples were analyzed with a MicroBeta® Trilux microplate liquid scintillation counter and luminometer (Perkin-Elmer).

| Structure (SMILES) | pIC50 |
| --- | --- |
| CCOC(=O)c1ccc(-c2ccc(C(CC)n3ccnc3)nc2)cc1 (stereo not drawn) [Example 5, Ethyl 4-(6-(1-(1H-imidazol-1-yl)propyl)pyridin-3-yl)benzoate] | 6.70 to 7.30 |
| CCC(c1ccc(-c2ccc(C(=O)O)cc2)cn1)n1ccnc1 (stereo not drawn) [Example 6, 4-(6-(1-(1H-imidazol-1-yl)propyl)pyridin-3-yl)benzoic acid] | 5.00 to 6.70 |
| CCC(c1ccc(-c2ccc(COCOC)cc2)cn1)n1ccnc1 (stereo not drawn) [Example 11, 2-(1-(1H-imidazol-1-yl)propyl)-5-(4-((methoxymethoxy)methyl)-phenyl)pyridine] | 6.70 to 7.30 |
| CC(c1ccc(-c2ccc(F)cc2)cn1)n1ccnc1 (stereo not drawn) [Example 12, 2-(1-(1H-imidazol-1-yl)ethyl)-5-(4-fluorophenyl)pyridine] | > 7.30 |
| CC(c1ccc(-c2ccc(N)cc2)cn1)n1ccnc1 (stereo not drawn) [Example 14, 4-(6-(1-(1H-imidazol-1-yl)ethyl)pyridin-3-yl)aniline] | 6.70 to 7.30 |
| COc1ccc(-c2ccc(C(C)n3ccnc3)nc2)cc1 (stereo not drawn) [Example 15, 2-(1-(1H-imidazol-1-yl)ethyl)-5-(4-methoxyphenyl)pyridine] | 6.70 to 7.30 |
| CC(c1ccc(-c2ccc(=O)n(C)c2)s1)n1ccnc1 (stereo not drawn) [Example 20, 5-(5-(1-(1H-imidazol-1-yl)ethyl)thiophen-2-yl)-1-methylpyridin-2(1H)-one] | > 7.30 |
| CC(c1ccc(-c2ccc(=O)n(C(C)C)c2)s1)n1ccnc1 (stereo not drawn) [Example 21, 5-(5-(1-(1H-imidazol-1-yl)ethyl)thiophen-2-yl)-1-isopropylpyridin-2(1H)-one] | > 7.30 |
| CC(c1cnc(-c2ccc(C#N)cc2)s1)n1ccnc1 (stereo not drawn) [Example 22, 4-(5-(1-(1H-imidazol-1-yl)ethyl)thiazol-2-yl)benzonitrile] | > 7.30 |
| CC(c1cnc(-c2ccc(F)cc2F)s1)n1ccnc1 (stereo not drawn) [Example 28, 2-(2,4-Difluoro-phenyl)-5-(1-imidazol-1-yl-ethyl)-thiazole] | > 7.30 |
| CCC(c1ccc(-c2ccc(F)cc2)cn1)n1ccnc1 (stereo not drawn) [Example 29, 5-(4-Fluoro-phenyl)-2-(1-imidazol-1-yl-propyl)-pyridine] | > 7.30 |
| CCC(c1ccc(-c2ccc(O)cc2)o1)n1ccnc1 (stereo not drawn) [Example 30, 4-[5-(1-Imidazol-1-yl-propyl)-furan-2-yl]-phenol] | > 7.30 |
| CCC(c1cnc(-c2ccc(NC(=O)OC(C)(C)C)cc2)s1)n1ccnc1 (stereo not drawn) [Example 31, {4-[5-(1-Imidazol-1-yl-propyl)-thiazol-2-yl]-phenyl}-carbamic acid tert-butyl ester] | > 7.30 |
| CCC(c1cnc(-c2ccc(F)cc2F)s1)n1ccnc1 (stereo not drawn) [Example 32, 2-(2,4-Difluoro-phenyl)-5-(1-imidazol-1-yl-propyl)-thiazole] | > 7.30 |
| CCC(c1cnc(-c2ccc(F)cc2)s1)n1ccnc1 (stereo not drawn) [Example 33, 2-(4-Fluoro-phenyl)-5-(1-imidazol-1-yl-propyl)-thiazole] | > 7.30 |
| CC(c1ccc(-c2ccc(F)cc2)cn1)n1ccnc1 (stereo not drawn) [Example 34, 5-(4-Fluoro-phenyl)-2-(1-imidazol-1-yl-ethyl)-pyridine] | > 7.30 |
| CCC(c1cnc(-c2ccc(OC)cc2)s1)n1ccnc1 (stereo not drawn) [Example 35, 5-(1-Imidazol-1-yl-propyl)-2-(4-methoxy-phenyl)-thiazole] | > 7.30 |
| COc1ccc(-c2ccc(C(C)n3ccnc3)s2)cc1 (stereo not drawn) [Example 36, 1-{1-[5-(4-Methoxy-phenyl)-thiophen-2-yl]-ethyl}-1H-imidazole] | > 7.30 |
| CCC(c1ccc(-c2ccccc2O)cn1)n1ccnc1 (stereo not drawn) [Example 37, 2-[6-(1-Imidazol-1-yl-propyl)-pyridin-3-yl]-phenol] | > 7.30 |

Further lines, results first:

| pIC50 | Structure (SMILES) |
| --- | --- |
| > 7.30 | CCC(c1cnc(-c2cccc(F)c2)s1)n1ccnc1 (stereo not drawn) [Example 1, 5-(1-(1H-imidazol-1-yl)propyl)-2-(3-fluorophenyl)thiazole] |
| > 7.30 | CCC(c1ccc(-c2ccc(OC)cc2)s1)n1ccnc1 (stereo not drawn) [Example 3, 1-(1-(5-(4-methoxyphenyl)thiophen-2-yl)propyl)-1H-imidazole] |
| > 7.30 | CCC(c1ccc(-c2ccc(O)cc2)s1)n1ccnc1 (stereo not drawn) [Example 4, 4-(5-(1-(1H-imidazol-1-yl)propyl)thiophen-2-yl)phenol] |
| > 7.30 | CCC(c1ccc(-c2cccc(OC)c2)cn1)n1ccnc1 (stereo not drawn) [Example 7, 2-(1-(1H-imidazol-1-yl)propyl)-5-(3-methoxyphenyl)pyridine] |
| > 7.30 | CCC(c1ccc(-c2cccc(O)c2)cn1)n1ccnc1 (stereo not drawn) [Example 8, 3-(6-(1-(1H-imidazol-1-yl)propyl)pyridin-3-yl)phenol] |
| > 7.30 | CCC(c1ccc(-c2ccc(C(=O)NC)cc2)cn1)n1ccnc1 (stereo not drawn) [Example 9, 4-(6-(1-(1H-imidazol-1-yl)propyl)pyridin-3-yl)-N-methylbenzamide] |
| > 7.30 | CCC(c1ccc(-c2ccc(C(N)=O)cc2)cn1)n1ccnc1 (stereo not drawn) [Example 10, 4-(6-(1-(1H-imidazol-1-yl)propyl)pyridin-3-yl)benzamide] |
| > 7.30 | CC(c1ccc(-c2ccoc2)cn1)n1ccnc1 (stereo not drawn) [Example 13, 2-(1-(1H-imidazol-1-yl)ethyl)-5-(furan-3-yl)pyridine] |
| > 7.30 | CC(c1ccc(-c2ccc(O)cc2)cn1)n1ccnc1 (stereo not drawn) [Example 16, 4-(6-(1-(1H-imidazol-1-yl)ethyl)pyridin-3-yl)phenol] |
| > 7.30 | CCC(c1ccc(-c2ccc(C#N)cc2)cn1)n1ccnc1 (stereo not drawn) [Example 17, 4-[6-(1-Imidazol-1-yl-propyl)-pyridin-3-yl]-benzonitrile] |
| > 7.30 | CCC(c1ccc(-c2ccccc2C#N)cn1)n1ccnc1 (stereo not drawn) [Example 18, 2-(6-(1-(1H-imidazol-1-yl)propyl)pyridin-3-yl)benzonitrile] |
| > 7.30 | CCC(c1nnc(-c2ccc(F)cc2)s1)n1ccnc1 (stereo not drawn) [Example 19, 2-(1-(1H-imidazol-1-yl)propyl)-5-(4-fluorophenyl)-1,3,4-thiadiazole] |
| > 7.30 | CC(C)CC(c1ccc(-c2ccc(O)cc2)s1)n1ccnc1 (stereo not drawn) [Example 23, 4-(5-(1-(1H-imidazol-1-yl)-3-methylbutyl)-thiophen-2-yl)phenol] |
| > 7.30 | COc1ccc(-c2ccc(C(C)(C)n3ccnc3)s2)cc1 [Example 24, 1-(2-(5-(4-methoxyphenyl)-thiophen-2-yl)-propan-2-yl)-1H-imidazole] |
| > 7.30 | COc1ccc(-c2ccc(C(C)n3ccnc3)s2)cn1 (stereo not drawn) [Example 25, 5-[5-(1-Imidazol-1-yl-ethyl)-thiophen-2-yl]-2-methoxy-pyridine] |
| > 7.30 | CC(C)(c1ccc(-c2ccc(O)cc2)s1)n1ccnc1 [Example 26, 4-[5-(1-Imidazol-1-yl-1-methyl-ethyl)-thiophen-2-yl]-phenol] |
| > 7.30 | CCC(c1ccc(-c2ccc(OC)cc2)o1)n1ccnc1 (stereo not drawn) [Example 27, 1-{1-[5-(4-Methoxy-phenyl)-furan-2-y]-propyl}-1H-imidazole] |
